Data reported in PubChem BioAssay AID2060485 (Molecular Pharmacology Branch, DTP, NCI, 2025).

Test system: A375 multi-cell spheroids with HUVEC/MSC, viability
Test: Anticancer human tumor A375 cell line growth inhibition [GQUAD];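 also: spheroids exposed to compounds for seven days before readout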
Settings: for IC50: curve of first compound; for viability, T/C: stronger effect = lower value
How it was run: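 Viability of tumor cells grown as complex spheroids with endothelial and stromal cells, exposed to drug combinations. Top concentration at or near clinical Cmax (else 10 microM), diluted in half-log increments.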

[1] = second compound 0.0316 µM, first compound 0.0316 µM
[2] = second compound 0.0316 µM, first compound 0.1 µM
[3] = second compound 0.0316 µM, first compound 0.316 µM
[4] = second compound 0.0316 µM, first compound 1 µM
[5] = second compound 0.0316 µM, first compound 3.16 µM
[6] = second compound 0.0316 µM, first compound 10 µM
[7] = second compound 0.1 µM, first compound 0.0316 µM
[8] = second compound 0.1 µM, first compound 0.1 µM
[9] = second compound 0.1 µM, first compound 0.316 µM
[10] = second compound 0.1 µM, first compound 1 µM
[11] = second compound 0.1 µM, first compound 3.16 µM
[12] = second compound 0.1 µM, first compound 10 µM
[13] = second compound 0.316 µM, first compound 0.0316 µM
[14] = second compound 0.316 µM, first compound 0.1 µM
[15] = second compound 0.316 µM, first compound 0.316 µM
[16] = second compound 0.316 µM, first compound 1 µM
[17] = second compound 0.316 µM, first compound 3.16 µM
[18] = second compound 0.316 µM, first compound 10 µM
[19] = second compound 1 µM, first compound 0.0316 µM
[20] = second compound 1 µM, first compound 0.1 µM
[21] = second compound 1 µM, first compound 0.316 µM
[22] = second compound 1 µM, first compound 1 µM
[23] = second compound 1 µM, first compound 3.16 µM
[24] = second compound 1 µM, first compound 10 µM
[25] = second compound 3.16 µM, first compound 0.0316 µM
[26] = second compound 3.16 µM, first compound 0.1 µM
[27] = second compound 3.16 µM, first compound 0.316 µM
[28] = second compound 3.16 µM, first compound 1 µM
[29] = second compound 3.16 µM, first compound 3.16 µM
[30] = second compound 3.16 µM, first compound 10 µM
[31] = second compound 10 µM, first compound 0.0316 µM
[32] = second compound 10 µM, first compound 0.1 µM
[33] = second compound 10 µM, first compound 0.316 µM
[34] = second compound 10 µM, first compound 1 µM
[35] = second compound 10 µM, first compound 3.16 µM
[36] = second compound 10 µM, first compound 10 µM

Structure (SMILES): C=CC(=O)N1CCN(c2nc(=O)n(-c3c(C)ccnc3C(C)C)c3nc(-c4c(O)cccc4F)c(F)cc23)C(C)C1 (stereo unspecified) + CN(C)c1ccc(Nc2c3ccc(NC(=O)CCN4CCCC4)cc3nc3cc(NC(=O)CCN4CCCC4)ccc23)cc1
- IC50 (second compound 0.0316 µM): > 10 µM
- IC50 (second compound 0.1 µM): > 10 µM
- IC50 (second compound 0.316 µM): > 10 µM
- IC50 (second compound 1 µM): > 10 µM
- IC50 (second compound 3.16 µM): > 10 µM
- IC50 (second compound 10 µM): > 10 µM
- viability, T/C [1]: 107%
- viability, T/C [2]: 95.4%
- viability, T/C [3]: 94.9%
- viability, T/C [4]: 95.1%
- viability, T/C [5]: 110%
- viability, T/C [6]: 123%
- viability, T/C [7]: 108%
- viability, T/C [8]: 96.8%
- viability, T/C [9]: 103%
- viability, T/C [10]: 95.4%
- viability, T/C [11]: 98.6%
- viability, T/C [12]: 119%
- viability, T/C [13]: 95.1%
- viability, T/C [14]: 94.7%
- viability, T/C [15]: 90.6%
- viability, T/C [16]: 101%
- viability, T/C [17]: 101%
- viability, T/C [18]: 128%
- viability, T/C [19]: 97.7%
- viability, T/C [20]: 92.2%
- viability, T/C [21]: 94.8%
- viability, T/C [22]: 102%
- viability, T/C [23]: 109%
- viability, T/C [24]: 133%
- viability, T/C [25]: 98.7%
- viability, T/C [26]: 90.7%
- viability, T/C [27]: 92.3%
- viability, T/C [28]: 93.4%
- viability, T/C [29]: 103%
- viability, T/C [30]: 126%
- viability, T/C [31]: 99.9%
- viability, T/C [32]: 92.2%
- viability, T/C [33]: 99.8%
- viability, T/C [34]: 100%
- viability, T/C [35]: 108%
- viability, T/C [36]: 107%

Structure (SMILES): CC(C)n1c(=O)n(C)c2cnc3cc(F)c(-c4ccc(OCCCN5CCCCC5)nc4)cc3c21 + CN(C)c1ccc(Nc2c3ccc(NC(=O)CCN4CCCC4)cc3nc3cc(NC(=O)CCN4CCCC4)ccc23)cc1
- IC50 (second compound 0.0316 µM): > 10 µM
- IC50 (second compound 0.1 µM): > 10 µM
- IC50 (second compound 0.316 µM): > 10 µM
- IC50 (second compound 1 µM): > 10 µM
- IC50 (second compound 3.16 µM): > 10 µM
- IC50 (second compound 10 µM): 4.83 µM
- viability, T/C [1]: 109%
- viability, T/C [2]: 99.5%
- viability, T/C [3]: 105%
- viability, T/C [4]: 106%
- viability, T/C [5]: 114%
- viability, T/C [6]: 88.3%
- viability, T/C [7]: 108%
- viability, T/C [8]: 106%
- viability, T/C [9]: 97.9%
- viability, T/C [10]: 98.5%
- viability, T/C [11]: 115%
- viability, T/C [12]: 91.2%
- viability, T/C [13]: 103%
- viability, T/C [14]: 97.1%
- viability, T/C [15]: 103%
- viability, T/C [16]: 109%
- viability, T/C [17]: 116%
- viability, T/C [18]: 78.3%
- viability, T/C [19]: 103%
- viability, T/C [20]: 102%
- viability, T/C [21]: 108%
- viability, T/C [22]: 108%
- viability, T/C [23]: 110%
- viability, T/C [24]: 78%
- viability, T/C [25]: 97.4%
- viability, T/C [26]: 98.1%
- viability, T/C [27]: 104%
- viability, T/C [28]: 103%
- viability, T/C [29]: 107%
- viability, T/C [30]: 59.6%
- viability, T/C [31]: 102%
- viability, T/C [32]: 96.4%
- viability, T/C [33]: 94.2%
- viability, T/C [34]: 89.4%
- viability, T/C [35]: 61%
- viability, T/C [36]: 30.5%

Structure (SMILES): CC1COCCN1c1cc(C2(O)CC3CCC(C2)O3)c2cnn(-c3ccn[nH]3)c2n1 (stereo unspecified) + CN(C)c1ccc(Nc2c3ccc(NC(=O)CCN4CCCC4)cc3nc3cc(NC(=O)CCN4CCCC4)ccc23)cc1
- IC50 (second compound 0.0316 µM): 0.199 µM
- IC50 (second compound 0.1 µM): 0.188 µM
- IC50 (second compound 0.316 µM): 0.21 µM
- IC50 (second compound 1 µM): 0.203 µM
- IC50 (second compound 3.16 µM): 0.226 µM
- IC50 (second compound 10 µM): 0.204 µM
- viability, T/C [1]: 94.4%
- viability, T/C [2]: 70.8%
- viability, T/C [3]: 36.1%
- viability, T/C [4]: 15.5%
- viability, T/C [5]: 11.3%
- viability, T/C [6]: 6.63%
- viability, T/C [7]: 97.4%
- viability, T/C [8]: 70.4%
- viability, T/C [9]: 32.7%
- viability, T/C [10]: 15.7%
- viability, T/C [11]: 8.49%
- viability, T/C [12]: 6.23%
- viability, T/C [13]: 101%
- viability, T/C [14]: 70.7%
- viability, T/C [15]: 40.5%
- viability, T/C [16]: 13.9%
- viability, T/C [17]: 10.9%
- viability, T/C [18]: 7.23%
- viability, T/C [19]: 97.9%
- viability, T/C [20]: 72.4%
- viability, T/C [21]: 35.6%
- viability, T/C [22]: 16.3%
- viability, T/C [23]: 11.7%
- viability, T/C [24]: 7.1%
- viability, T/C [25]: 97.2%
- viability, T/C [26]: 72.7%
- viability, T/C [27]: 41%
- viability, T/C [28]: 17.8%
- viability, T/C [29]: 11.1%
- viability, T/C [30]: 7.14%
- viability, T/C [31]: 87.7%
- viability, T/C [32]: 67.8%
- viability, T/C [33]: 39.7%
- viability, T/C [34]: 16%
- viability, T/C [35]: 11.5%
- viability, T/C [36]: 6.9%
